Here are results for 22 compounds from PubChem BioAssay (NCI).

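Method: 48-hour compound exposure of cells in 96-well plates, five concentrations, linear interpolation of endpoints. GI50 is the concentration that inhibits growth by half. TGI: total growth inhibition.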 Bounds are passed on as bounds.

Test systems include UO-31 renal; 786-0 renal; SK-MEL-2 melanoma; HT29 colon; HCC-2998 colon; SF-295 CNS; CCRF-CEM leukemia; RXF 393 renal; RPMI-8226 leukemia.
Holding throughout (assay): NCI tumour cell line growth inhibition, 48 h

As for `COc1ccc(OC)c(/C=C/c2cnnc3ccccc23)c1`, the TGI in the test on UO-31 renal was over 10 µM; in the test on 786-0 renal, over 10 µM; in the test on SK-MEL-2 melanoma, 6.43 µM; in the test on HT29 colon, over 10 µM; with HCC-2998 colon it was over 10 µM; in the test on SF-295 CNS, over 10 µM. The TGI with CCRF-CEM leukemia, in the test with RXF 393 renal and in the test on RPMI-8226 leukemia was over 10 µM in each case.

As for `NC(CCCNCc1ccccc1O)C(=O)O` (configuration not stated), the TGI in the test with UO-31 renal, in the test on 786-0 renal, in the test with SK-MEL-2 melanoma, with HT29 colon, in the test with SF-295 CNS and in the test on CCRF-CEM leukemia was over 100 µM in each case. Further, the TGI with RPMI-8226 leukemia was over 100 µM.

Consider `O=c1[nH]c(C2CCCCC2)nc2cc(Cl)ccc12`, for which the TGI in the test with UO-31 renal, in the test on 786-0 renal, in the test with SK-MEL-2 melanoma, with HT29 colon, in the test with HCC-2998 colon and in the test with SF-295 CNS was over 100 µM in each case. Also, the TGI in the test on RXF 393 renal and in the test with RPMI-8226 leukemia was over 100 µM each time.

Turning to `O=C1[C@H](c2ccccc2)C2c3ccccc3CCN12` (some centres not stated), the TGI in the test on UO-31 renal, in the test on 786-0 renal, with SK-MEL-2 melanoma, in the test on HT29 colon, in the test on HCC-2998 colon and with SF-295 CNS was over 100 µM each time. Moreover, the TGI with CCRF-CEM leukemia, with RXF 393 renal and in the test on RPMI-8226 leukemia was over 100 µM each time. Also, the GI50 in the test on 786-0 renal, with SK-MEL-2 melanoma, in the test on HT29 colon, in the test on HCC-2998 colon, with SF-295 CNS and with CCRF-CEM leukemia was over 100 µM throughout. Also, the GI50 in the test with RXF 393 renal and in the test with RPMI-8226 leukemia was over 100 µM each time.

Turning to `O=C(Nc1ccc(Cl)cc1Cl)/C(Cl)=C1/Sc2ccccc2NC1=O`, the TGI was 77.2 µM with UO-31 renal; over 100 µM in the test on 786-0 renal; 48.3 µM with SK-MEL-2 melanoma; over 100 µM in the test with HCC-2998 colon; 83.4 µM with CCRF-CEM leukemia; 75.8 µM in the test on RXF 393 renal. Moreover, in the test with RPMI-8226 leukemia, the TGI is 65.9 µM.

`CCOCC[P+](c1ccccc1)(c1ccccc1)c1ccccc1`: the GI50 in the test with UO-31 renal was 34.8 µM; with 786-0 renal it was 31.3 µM; in the test with SK-MEL-2 melanoma, 18.6 µM; in the test with HT29 colon, 16.2 µM; with SF-295 CNS it was 20.4 µM; in the test with CCRF-CEM leukemia, 23 µM. Besides, the GI50 in the test on RPMI-8226 leukemia is 4.55 µM. Moreover, the TGI with UO-31 renal is over 100 µM; with 786-0 renal, over 100 µM; with SK-MEL-2 melanoma, 47.9 µM; in the test on HT29 colon, 96.3 µM; with SF-295 CNS it was 78.6 µM; in the test with CCRF-CEM leukemia, over 100 µM. Moreover, the TGI in the test with RPMI-8226 leukemia amounted to 40.4 µM.

On to `O=C(CCc1cc(-c2ccco2)n(-c2ccc([N+](=O)[O-])cc2[N+](=O)[O-])n1)Nc1ccccc1`, for which the TGI in the test with UO-31 renal, with 786-0 renal, with SK-MEL-2 melanoma, in the test on HT29 colon, with HCC-2998 colon and in the test on SF-295 CNS was over 100 µM each time. For the same compound, the TGI in the test on CCRF-CEM leukemia, in the test with RXF 393 renal and in the test on RPMI-8226 leukemia was over 100 µM in each case.

In the case of `FC(F)(F)c1ccccc1C=NC12CC3CC(CC(C3)C1)C2`, the TGI is 12.1 µM in the test with UO-31 renal; over 100 µM with 786-0 renal; over 100 µM with SK-MEL-2 melanoma; over 100 µM in the test with HT29 colon; over 100 µM with HCC-2998 colon; over 100 µM with SF-295 CNS. Also, the TGI in the test with RXF 393 renal and in the test on RPMI-8226 leukemia was over 100 µM throughout.

As to `[O-][N+]1=C(c2ccccc2)COc2ccccc21`, the TGI in the test with UO-31 renal, in the test with 786-0 renal, in the test on SK-MEL-2 melanoma, in the test with HT29 colon, in the test on HCC-2998 colon and in the test on SF-295 CNS was over 100 µM in each case. Further, the TGI with CCRF-CEM leukemia, in the test on RXF 393 renal and in the test with RPMI-8226 leukemia was over 100 µM throughout.

On to `C=C1CCC2C(C)(CO)C(O)CCC2(C)C1CC(O)C1=CCOC1=O` (configuration not stated), for which the TGI with UO-31 renal was over 100 µM; with 786-0 renal, 71.6 µM; with SK-MEL-2 melanoma it was over 100 µM; in the test with HT29 colon, over 100 µM; in the test with HCC-2998 colon, 40.8 µM; in the test on SF-295 CNS, over 100 µM. In addition, the values for the TGI in the test with CCRF-CEM leukemia and in the test on RPMI-8226 leukemia were 84.3 µM and over 100 µM, respectively.

For `O=CN/C=C/c1ccccc1O`, the TGI with UO-31 renal, with 786-0 renal, in the test with SK-MEL-2 melanoma, in the test on HT29 colon, in the test on HCC-2998 colon and in the test on SF-295 CNS was over 100 µM throughout. Further, the TGI in the test with CCRF-CEM leukemia, with RXF 393 renal and in the test on RPMI-8226 leukemia was over 100 µM in each case.

In the case of `O=C1CC23CC(=O)CC2(C1)c1ccccc1C3=O` (configuration not stated), the TGI in the test with UO-31 renal, in the test on 786-0 renal, with SK-MEL-2 melanoma, in the test with HT29 colon, in the test with HCC-2998 colon and in the test on SF-295 CNS was over 100 µM throughout. Also, the TGI in the test on CCRF-CEM leukemia, in the test with RXF 393 renal and in the test with RPMI-8226 leukemia was over 100 µM throughout.

Regarding `Cc1ccc(S(=O)(=O)NC(=O)Nc2nc(Cl)cc(Cl)n2)cc1`, the TGI in the test with UO-31 renal, with 786-0 renal, in the test with SK-MEL-2 melanoma, with HCC-2998 colon, with SF-295 CNS and with CCRF-CEM leukemia was over 100 µM in each case. The TGI in the test with RXF 393 renal and with RPMI-8226 leukemia was over 100 µM in each case.

For `Cc1cc2c(=O)cc(-c3ccc(C(=O)O)cc3)oc2c(C(=O)O)c1C`, the TGI in the test on UO-31 renal, with 786-0 renal, in the test on SK-MEL-2 melanoma, in the test on HT29 colon, with HCC-2998 colon and in the test with SF-295 CNS was over 100 µM throughout. Also, the TGI in the test with CCRF-CEM leukemia and in the test with RPMI-8226 leukemia was over 100 µM throughout.

For `COC(=O)CCC(=O)C(C#N)c1ccc(Cl)cc1Cl` (configuration not stated), the TGI in the test on UO-31 renal, in the test on 786-0 renal, in the test with SK-MEL-2 melanoma, in the test on HT29 colon, in the test with SF-295 CNS and with CCRF-CEM leukemia was over 100 µM throughout. The compound further showed a TGI in the test with RPMI-8226 leukemia of over 100 µM.

As to `Cc1ccccc1C(C#N)/C(=N/NC(=O)C(=O)NN)C(=O)Nc1cccc(C(F)(F)F)c1` (configuration not stated), the TGI in the test on UO-31 renal, in the test on 786-0 renal, in the test with SK-MEL-2 melanoma, with HT29 colon, in the test with HCC-2998 colon and in the test with SF-295 CNS was over 100 µM in each case. Further, the TGI with CCRF-CEM leukemia and with RPMI-8226 leukemia was over 100 µM throughout.

For `COc1ccc(OC)c2c3c(ncc12)-c1cc2c(cc1C3)OCO2`, the GI50 in the test with UO-31 renal is over 100 µM; with 786-0 renal it was 22.5 µM; in the test with SK-MEL-2 melanoma, over 100 µM; with HCC-2998 colon it was over 100 µM; with SF-295 CNS, 27 µM; in the test with CCRF-CEM leukemia it was over 100 µM. Further, the GI50 with RXF 393 renal and in the test on RPMI-8226 leukemia was over 100 µM in each case. Besides, the TGI with UO-31 renal, in the test on 786-0 renal, with SK-MEL-2 melanoma, with HCC-2998 colon, in the test with SF-295 CNS and in the test with CCRF-CEM leukemia was over 100 µM each time. Further, the TGI in the test on RXF 393 renal and in the test with RPMI-8226 leukemia was over 100 µM each time.

Turning to `O=C1C=CC(=O)N1CCCCCCCCCCN1C(=O)C=CC1=O`, the GI50 is 4.92 µM in the test with UO-31 renal; 16.2 µM in the test with 786-0 renal; 4.67 µM in the test with HT29 colon; 26 µM in the test on HCC-2998 colon; 23.5 µM in the test with SF-295 CNS; 4.05 µM with CCRF-CEM leukemia. Also, the GI50 was 3.13 µM in the test with RXF 393 renal and 6.72 µM with RPMI-8226 leukemia. Also, the TGI was 19.6 µM in the test on UO-31 renal; 30.4 µM with 786-0 renal; 26.7 µM in the test with HT29 colon; 71.2 µM in the test with HCC-2998 colon; 74.4 µM with SF-295 CNS; over 100 µM in the test with CCRF-CEM leukemia. Besides, the TGI in the test on RXF 393 renal stood at 11.3 µM; with RPMI-8226 leukemia it was 57.7 µM.

Consider `O=C(Cc1nc2ccccc2s1)NC12CC3CC(CC(C3)C1)C2`, for which the TGI with UO-31 renal, in the test with 786-0 renal, in the test with SK-MEL-2 melanoma, in the test on HT29 colon, in the test on HCC-2998 colon and in the test with SF-295 CNS was over 100 µM in each case. Also, the TGI with CCRF-CEM leukemia was over 100 µM.

For `N#Cc1ccccc1/C=N/O`, the TGI in the test on UO-31 renal was over 100 µM; in the test on 786-0 renal, over 100 µM; in the test with HT29 colon, over 100 µM; with HCC-2998 colon, over 100 µM; in the test on SF-295 CNS, over 100 µM; in the test on CCRF-CEM leukemia, over 85 µM. For the same compound, the figures for the TGI in the test on RXF 393 renal and with RPMI-8226 leukemia were over 100 µM and over 66.7 µM, respectively.

As to `O=[N+]([O-])c1ccc(C2N3CCCCC3[C@@H]3c4[nH]c5ccccc5c4CCN23)cc1` (some centres not stated), the TGI in the test on UO-31 renal is 81.8 µM; in the test with 786-0 renal it was over 100 µM; in the test with SK-MEL-2 melanoma, 33 µM; with HT29 colon, 16 µM; in the test with SF-295 CNS, over 100 µM; in the test with CCRF-CEM leukemia, 64.4 µM. Moreover, the TGI in the test with RXF 393 renal is 18.9 µM; in the test on RPMI-8226 leukemia, over 100 µM.

Take `COC(=O)C1CCc2nnc(-c3cccnc3)n21` (configuration not stated): the TGI in the test with UO-31 renal, in the test on 786-0 renal, with SK-MEL-2 melanoma, in the test on HCC-2998 colon, in the test with CCRF-CEM leukemia and with RXF 393 renal was over 100 µM each time. For the same compound, in the test with RPMI-8226 leukemia, the TGI is over 100 µM.
